The target of the experiment is T1, human CXCR3 (N-delta 4) (Homo sapiens, UniProt P49682).
T1 construct: CD8 leader; Flag tag; expressed in transfected cells; membranes used
T1 sequence (P49682 5-368 limits assumed): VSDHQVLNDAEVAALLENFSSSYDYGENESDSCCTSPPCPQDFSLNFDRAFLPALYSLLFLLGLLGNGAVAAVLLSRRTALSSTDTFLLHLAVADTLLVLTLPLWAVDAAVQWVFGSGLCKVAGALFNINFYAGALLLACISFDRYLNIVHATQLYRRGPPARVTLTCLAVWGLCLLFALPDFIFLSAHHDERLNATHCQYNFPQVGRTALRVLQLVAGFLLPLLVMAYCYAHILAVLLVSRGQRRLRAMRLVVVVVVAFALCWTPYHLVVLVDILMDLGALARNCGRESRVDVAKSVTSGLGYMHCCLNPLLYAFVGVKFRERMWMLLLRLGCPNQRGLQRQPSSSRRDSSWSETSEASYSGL
The experiment is described as follows: Human CXCR3 (N-delta 4) scintillation proximity assay (SPA), [125I] IP-10 binding. The note with it: IC50 rating; Ba/F3-hCXCR3 (N-delta 4) membranes, 25 pM [125I] IP-10. In short, it runs like this: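 Membranes from mouse Ba/F3 pro-B cells stably expressing Flag-tagged human CXCR3 (N-delta 4) were coupled to SPA beads. IP-10 was added together with titrated compounds to start the reaction, and bound radioligand was read by scintillation proximity.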
`CC[C@H]1CN(c2ncc(C(=O)OC)c(N)c2Cl)CCN1C1CCN(Cc2ccc(Cl)cc2F)CC1` [compound 441] registered a concentration for half-maximal inhibition (IC50) of over 100 nM. The same measure for `CC[C@H]1CN(c2ncc(C(=N)N)cc2Cl)CCN1C1CCN(C(=O)c2ccc(Cl)nc2N)CC1` [compound 442]: over 100 nM. The same measure for `CC[C@H]1CN(c2ncc(CNS(=O)(=O)C(F)(F)F)cc2Cl)CCN1C1CCN(Cc2ccc(Cl)cc2F)CC1` [compound 443]: over 100 nM; for `CCC(=NO)c1cnc(N2CCN(C3CCN(Cc4ccc(Cl)cc4F)CC3)[C@@H](CC)C2)c(Cl)c1` [compound 444]: over 100 nM; for `CC[C@H]1CN(c2ncc(CN(C(=O)Nc3c(C)noc3C)C(=O)Nc3c(C)noc3C)cc2Cl)CCN1C1CCN(Cc2ccc(Cl)cc2F)CC1` [compound 445]: over 100 nM. With `CC[C@H]1CN(c2ncc(C(C)(C)O)cc2Cl)CCN1C1CCN(Cc2ccc(Cl)cc2F)CC1` [compound 446] the figure was over 100 nM. In turn, `CC[C@H]1CN(c2ncc(C(=O)OC)cc2Cl)CCN1C1CCN(Cc2ccc(F)cc2C(F)(F)F)CC1` [compound 447] registered an IC50 of over 100 nM. With `CC[C@H]1CN(c2ncc(CO)cc2Cl)CCN1C1CCN(C(=O)c2ccccc2)CC1` [compound 448] the figure was over 100 nM. On to `COC(=O)c1cnc(N2CCN(C3CCN(Cc4ccc(F)cc4)CC3)[C@@H](C)C2)c(Cl)c1` [compound 449], for which the 50% inhibitory concentration (IC50) was over 100 nM. In turn, `CC[C@H]1CN(c2ncc(C(C)N)cc2Cl)CCN1C1CCN(Cc2ccc(Cl)cc2F)CC1` (some centres unmarked) [compound 450] registered an IC50 of over 100 nM. With `CC[C@H]1CN(c2ncc(C(C)OC(C)=O)cc2Cl)CCN1C1CCN(Cc2ccc(Cl)cc2F)CC1` (some centres unmarked) [compound 451] the figure was over 100 nM; with `CC[C@H]1CN(c2ccc(CN)cn2)CCN1C1CCN(Cc2ccc(Cl)cc2)CC1` [compound 452], over 100 nM; with `CCOC(CNC(=N)c1cnc(N2CCN(C3CCN(C(=O)c4ccc(Cl)cc4)CC3)[C@@H](CC)C2)c(Cl)c1)OCC` [compound 453], over 100 nM.

Take `CC[C@H]1CN(c2ncc(C(=O)OC)cc2Cl)CCN1C1CCN(C(=O)c2ccc(Br)cc2)CC1` [compound 454]: the IC50 was over 100 nM. With `CCC(=NOC)c1cnc(N2CCN(C3CCN(Cc4ccc(Cl)cc4F)CC3)[C@@H](CC)C2)c(Cl)c1` [compound 455] the figure was over 100 nM. `COC(=O)c1ccc(N2C[C@H](C)N(C3CCN(Cc4ccc(Cl)cc4F)CC3)C[C@H]2C)nc1` [compound 456] displayed an IC50 of over 100 nM.

On to `CC[C@H]1CN(c2ncc(C(=O)OC)cc2Cl)CCN1C1CCN(C(=O)c2ccc(-n3cccc3)cc2)CC1` [compound 457], for which the IC50 is over 100 nM. With `CC[C@H]1CN(c2c(Cl)cc(C(=O)OC)c[n+]2[O-])CCN1C1CCN(Cc2ccc(Cl)cc2F)CC1` [compound 458] the figure was 25 to 100 nM; with `CC[C@H]1CN(c2ncc(C(N)=O)cc2Cl)CCN1C1CCN(Cc2ccc(Cl)cc2N2CCOC2=O)CC1` [compound 460], 25 to 100 nM; with `CC[C@H]1CN(c2ncc(C(=O)NC3CC3)cc2C)CCN1C1CCN(C(=O)c2ccc(Cl)cc2)CC1` [compound 461], under 25 nM.

Usually IC50 stands for the midpoint of a concentration-inhibition curve.

The record behind these values is patent US7776862B2, “Pyridyl and phenyl substituted piperazine-piperidines with CXCR3 antagonist activity” (Schering Corporation, priority 2005, dated 2010).
